Assay [1] concerns the target PDGF receptor tyrosine kinase. The following applies: PDGFR kinase / PDGF receptor tyrosine kinase; cited from earlier work.
Assay [2] deals with epidermal growth factor receptor (EGFR) (Homo sapiens, UniProt P00533). The following applies: EGFR / EGF receptor kinase; cited from earlier work.
In assay [3] the test system is contracting cardiomyocytes derived from human fibroblast cells. The experiment in a line: Responses of reprogrammed cardiomyocytes to β-adrenergic and muscarinic stimulation. The format is cell-based. The following applies: cardiomyocytes reprogrammed from CRL-2097. How it is done:
Naïve human fibroblast CRL-2097 cells were treated with cardiac reprogramming medium for 6 days followed by treatment with cardiac induction medium 1 for 5 days and then cardiac induction medium 2 for 21-26 days.
Representative beating frequencies of the reprogrammed cells are shown in FIG. 7A before (i) or after β-adrenergic stimulation by its agonist (ii, isoproterenol), or a muscarinic agonist (iii. Carbachol; CCh).

The target in assay [4] is SAPK2/p38 (Homo sapiens, UniProt Q16539). Particulars: CK1 and ALK5 inhibitor vs SAPK2/p38; cited from earlier work.
The test system of assay [5] is human foreskin fibroblast cells. The experiment in a line: Reprogramming with PBIT as a substitute for AS8351. In kind it is cell-based. How it is done:
FIG. 8A graphically illustrates the knockdown efficiency of the indicated shRNAs in human foreskin fibroblast cells detected by qPCR (n=2). Expression values for each gene were normalized to those measured in control shRNA group. […] Data were collected on day 30. […] Data were collected on day 30. […] FIG. 8E illustrates immunofluorescence staining of cardiomyocyte markers on contracting clusters at day 30 after inducing reprogramming where AS8351 was replaced with 10 μM PBIT. Scale bars, 100 μm. […] Em, membrane potential. Dotted lines indicate 0 mV. F/F0, fluorescence relative to the baseline.
This conclusion was further confirmed by using a KDM5B inhibitor, PBIT (Sayegh et al., 2013) (FIGS. 8C and 8D).
KDM5B catalyzes the demethylation of tri-, di-, and mono-methylation states of H3K4 and facilitates heterochromatin formation (Mosammaparast and Shi, 2010). The inventors have observed that one effect of the reprogramming compositions described herein is on re-opening closed chromatin structures.

Assay [6] concerns the target ERK1 (Homo sapiens, UniProt P27361). Particulars: cited from earlier work.
For assay [7], the target named is T1, RasGAP (Homo sapiens, UniProt P20936).
T1 sequence (P20936 1-1047): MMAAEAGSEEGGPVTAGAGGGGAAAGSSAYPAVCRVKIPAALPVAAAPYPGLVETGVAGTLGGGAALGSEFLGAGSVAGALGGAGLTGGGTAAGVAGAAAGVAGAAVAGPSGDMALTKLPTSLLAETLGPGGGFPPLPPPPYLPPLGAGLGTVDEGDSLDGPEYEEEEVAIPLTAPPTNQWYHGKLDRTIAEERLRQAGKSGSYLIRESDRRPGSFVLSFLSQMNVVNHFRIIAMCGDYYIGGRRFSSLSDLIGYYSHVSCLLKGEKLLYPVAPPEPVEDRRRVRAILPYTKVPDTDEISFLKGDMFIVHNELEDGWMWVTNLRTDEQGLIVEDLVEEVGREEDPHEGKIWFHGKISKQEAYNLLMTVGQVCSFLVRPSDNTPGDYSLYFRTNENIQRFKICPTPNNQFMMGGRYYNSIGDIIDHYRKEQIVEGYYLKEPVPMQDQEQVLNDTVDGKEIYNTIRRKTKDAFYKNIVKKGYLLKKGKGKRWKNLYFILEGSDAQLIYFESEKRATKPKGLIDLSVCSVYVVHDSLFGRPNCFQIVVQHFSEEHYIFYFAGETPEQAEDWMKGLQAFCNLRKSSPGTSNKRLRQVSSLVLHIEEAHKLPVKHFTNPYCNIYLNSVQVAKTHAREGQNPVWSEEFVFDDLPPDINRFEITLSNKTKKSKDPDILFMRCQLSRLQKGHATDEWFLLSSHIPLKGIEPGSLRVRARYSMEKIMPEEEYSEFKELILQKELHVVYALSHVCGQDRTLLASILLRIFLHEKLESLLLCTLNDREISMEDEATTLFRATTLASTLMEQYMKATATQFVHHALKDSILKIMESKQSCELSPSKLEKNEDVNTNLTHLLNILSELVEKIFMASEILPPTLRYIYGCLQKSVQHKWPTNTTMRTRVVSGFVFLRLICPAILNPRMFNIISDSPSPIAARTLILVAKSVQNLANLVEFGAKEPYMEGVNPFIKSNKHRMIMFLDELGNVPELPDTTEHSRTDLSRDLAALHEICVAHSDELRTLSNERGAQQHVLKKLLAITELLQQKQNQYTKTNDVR
Particulars: cited from earlier work.

Assay [8] has as its system human adult dermal fibroblasts (HADFs). The experiment in a line: Conversion of human adult dermal fibroblasts into chemically induced cardiomyocytes. In kind it is cell-based. From the text: 9C is the reprogramming conditions; CCM. CM-conditioned medium; D, day. […] FIG. 9C graphically illustrates test protocols for ascertaining optimal treatment durations for a combination of sodium butyrate and SMER28 (NS) (n=3). The duration shown on the x-axis of the left graph is days (e.g., D0=day zero; D-14=day 14 of treatment). […] Scale bars, 100 μm.

In assay [9] the target is platelet-derived growth factor receptor β (PDGFRβ) (Homo sapiens, UniProt P09619). Particulars: cited from earlier work.
The mark [10] stands for this setting: 7-day pretreatment before reprogramming.

pIC50, pKd: −log10 of the molar value.

SAPK2/p38, sequence (Q16539 whole entry): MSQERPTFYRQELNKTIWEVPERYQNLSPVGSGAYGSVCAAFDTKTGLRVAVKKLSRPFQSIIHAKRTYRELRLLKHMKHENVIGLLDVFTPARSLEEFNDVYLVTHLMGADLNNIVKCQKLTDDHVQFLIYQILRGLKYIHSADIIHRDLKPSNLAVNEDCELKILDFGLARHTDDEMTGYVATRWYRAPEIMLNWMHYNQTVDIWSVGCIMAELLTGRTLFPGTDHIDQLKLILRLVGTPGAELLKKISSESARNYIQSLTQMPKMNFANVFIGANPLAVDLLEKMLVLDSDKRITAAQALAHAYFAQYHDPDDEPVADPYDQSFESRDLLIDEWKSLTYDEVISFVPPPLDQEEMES
platelet-derived growth factor receptor β (PDGFRβ), sequence (P09619 33-1106): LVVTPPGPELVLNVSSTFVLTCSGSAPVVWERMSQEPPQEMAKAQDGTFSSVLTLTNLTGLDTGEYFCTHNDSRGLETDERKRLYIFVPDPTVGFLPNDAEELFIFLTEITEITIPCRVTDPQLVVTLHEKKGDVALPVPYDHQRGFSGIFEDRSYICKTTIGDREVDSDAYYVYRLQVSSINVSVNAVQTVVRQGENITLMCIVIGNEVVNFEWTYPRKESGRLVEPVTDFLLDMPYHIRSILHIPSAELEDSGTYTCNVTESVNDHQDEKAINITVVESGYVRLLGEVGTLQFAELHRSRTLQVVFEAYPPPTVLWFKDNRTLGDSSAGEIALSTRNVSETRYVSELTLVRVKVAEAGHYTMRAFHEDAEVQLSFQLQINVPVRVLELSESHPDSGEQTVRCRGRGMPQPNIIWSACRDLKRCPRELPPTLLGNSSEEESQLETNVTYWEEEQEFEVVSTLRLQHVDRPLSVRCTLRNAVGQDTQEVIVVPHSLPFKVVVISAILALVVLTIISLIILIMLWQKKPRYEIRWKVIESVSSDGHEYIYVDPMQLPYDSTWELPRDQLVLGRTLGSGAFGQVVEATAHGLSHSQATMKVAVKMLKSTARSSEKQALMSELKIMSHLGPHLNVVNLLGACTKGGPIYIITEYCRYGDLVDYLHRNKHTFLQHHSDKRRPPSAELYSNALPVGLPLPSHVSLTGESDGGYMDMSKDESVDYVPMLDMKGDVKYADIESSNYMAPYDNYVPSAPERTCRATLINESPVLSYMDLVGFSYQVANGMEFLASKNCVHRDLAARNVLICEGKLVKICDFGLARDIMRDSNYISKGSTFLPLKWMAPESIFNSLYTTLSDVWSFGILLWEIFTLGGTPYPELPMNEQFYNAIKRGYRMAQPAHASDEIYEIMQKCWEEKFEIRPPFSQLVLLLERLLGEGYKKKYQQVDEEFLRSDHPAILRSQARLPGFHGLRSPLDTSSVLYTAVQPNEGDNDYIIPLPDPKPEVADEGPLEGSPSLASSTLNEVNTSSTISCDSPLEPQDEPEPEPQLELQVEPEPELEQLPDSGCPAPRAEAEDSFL
ERK1, sequence (P27361 whole entry, species assumed): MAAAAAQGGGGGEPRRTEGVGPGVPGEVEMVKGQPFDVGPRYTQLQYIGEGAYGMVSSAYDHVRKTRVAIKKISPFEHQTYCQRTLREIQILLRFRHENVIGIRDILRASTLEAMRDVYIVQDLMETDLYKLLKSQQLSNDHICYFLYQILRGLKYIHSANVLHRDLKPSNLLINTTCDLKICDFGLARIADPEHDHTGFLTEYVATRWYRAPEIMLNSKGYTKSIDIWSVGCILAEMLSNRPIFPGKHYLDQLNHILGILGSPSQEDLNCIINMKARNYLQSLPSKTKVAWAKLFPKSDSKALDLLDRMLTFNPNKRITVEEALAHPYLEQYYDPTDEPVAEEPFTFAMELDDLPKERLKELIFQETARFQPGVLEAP
epidermal growth factor receptor (EGFR), sequence (P00533 25-1210, species assumed): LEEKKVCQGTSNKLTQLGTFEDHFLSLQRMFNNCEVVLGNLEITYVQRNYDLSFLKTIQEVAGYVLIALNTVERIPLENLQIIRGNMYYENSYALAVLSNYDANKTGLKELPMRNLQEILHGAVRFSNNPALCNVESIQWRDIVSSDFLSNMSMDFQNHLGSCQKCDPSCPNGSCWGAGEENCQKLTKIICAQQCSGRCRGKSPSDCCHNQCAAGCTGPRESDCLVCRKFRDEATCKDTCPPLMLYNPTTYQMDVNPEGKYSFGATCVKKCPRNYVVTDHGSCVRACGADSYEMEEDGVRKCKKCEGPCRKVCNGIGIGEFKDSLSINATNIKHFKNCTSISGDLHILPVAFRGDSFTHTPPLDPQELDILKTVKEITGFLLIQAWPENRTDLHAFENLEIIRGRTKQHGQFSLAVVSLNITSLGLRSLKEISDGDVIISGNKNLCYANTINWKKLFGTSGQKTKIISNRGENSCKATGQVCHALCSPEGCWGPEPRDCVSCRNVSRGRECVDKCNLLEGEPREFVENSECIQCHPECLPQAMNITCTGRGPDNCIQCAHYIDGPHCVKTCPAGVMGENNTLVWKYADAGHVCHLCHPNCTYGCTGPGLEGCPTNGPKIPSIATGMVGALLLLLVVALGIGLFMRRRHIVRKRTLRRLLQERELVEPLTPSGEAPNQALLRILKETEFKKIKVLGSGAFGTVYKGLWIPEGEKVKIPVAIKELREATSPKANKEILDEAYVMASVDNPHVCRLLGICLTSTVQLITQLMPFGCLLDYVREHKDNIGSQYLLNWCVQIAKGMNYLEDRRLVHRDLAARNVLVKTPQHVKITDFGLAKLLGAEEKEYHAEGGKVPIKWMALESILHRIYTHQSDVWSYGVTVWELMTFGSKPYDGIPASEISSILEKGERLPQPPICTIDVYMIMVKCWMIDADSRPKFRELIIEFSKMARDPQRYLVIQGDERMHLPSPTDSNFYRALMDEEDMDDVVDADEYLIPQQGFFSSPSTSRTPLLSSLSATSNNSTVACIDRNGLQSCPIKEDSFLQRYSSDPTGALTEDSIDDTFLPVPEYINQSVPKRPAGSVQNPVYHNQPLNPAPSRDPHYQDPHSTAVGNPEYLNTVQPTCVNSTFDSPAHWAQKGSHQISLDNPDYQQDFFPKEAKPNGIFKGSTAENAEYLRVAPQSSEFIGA

As a reminder, the pIC50 is −log10 of the IC50, conventionally taken in molar units. For the molecule `N#CC(C#N)=Cc1ccc(O)c(O)c1` [AG18, [(3,4-Dihydroxyphenyl)methylene]-propenedinitrile], the pIC50 in [1] was 4.60. `N#CC(=Cc1ccc2[nH]ccc2c1)C(N)=C(C#N)C#N` [AG-370, 2-Amino-4-(1H-indol-5-yl)-1,1,3-tricyanobuta-1,3-diene]: the pIC50 was 4.70 in [1] and 3.09 in [2]. In the case of `COc1cc2ncc(-c3ccccc3)nc2cc1OC` [AG-1296, 6,7-Dimethoxy-3-phenylquinoxaline], in [1], the pIC50 is 6.00. In the case of `C[N+](C)(C)CCOC(N)=O` [Cch, carbachol], in assay [3], the “effect on beating frequency” value is reported as “opposite, negative effect”. As for `NC(=O)c1ccc(-c2nc(-c3ccc4c(c3)OCCO4)c(-c3ccccn3)[nH]2)cc1` [D 4476, 4-[4-(2,3-Dihydro-1,4-benzodioxin-6-yl)-5-(2-pyridinyl)-1H-imidazol-2-yl]benzamide], the “selectivity over SAPK2/p38” value in assay [4] was “greater than 20 fold”. For the molecule `Cc1ccc(-n2sc3ccccc3c2=O)cc1` [PBIT, 2-(4-methylphenyl)-1,2-benzisothiazol-3(2H)-one], the electrophysiological features result in [5] (10 μM PBIT as a substitute for AS8351) is “exhibited CM-like electrophysiological features”. The “expression of cardiac proteins” value in assay [5] (10 μM PBIT as a substitute for AS8351, day 30) was “expressed a broad panel of cardiac proteins”. The term pKd denotes the negative decadic logarithm of the Kd, by convention in mol/L. Take `Cc1cc(Nc2ncc3c(n2)N(C)C(=O)N(c2cc(NC(=O)c4cccc(C(F)(F)F)c4)ccc2C)C3)n(C)n1` [SC1, N-(3-(7-(1,3-dimethyl-1H-pyrazol-5-ylamino)-1-methyl-2-oxo-1,2-dihydropyrimido[4,5-d]pyrimidin-3(4H)-yl)-4-methylphenyl)-3-(trifluoromethyl)benzamide]: the values for the pKd in assay [6] and in assay [7] were 6.67 and 7.01, respectively.

Consider `C=CCNc1ncnc2ccc(Br)cc12` [SMER28], for which, in [8] (setting [10]), the “generation of beating cardiac clusters from HADFs” value is listed as “enabled the generation of beating cardiac clusters” and the “proliferation of HADFs” value is reported as “increased the proliferation of HADFs”. For the molecule `Cc1[nH]c(C=C2C(=O)Nc3ccccc32)c(C)c1CCC(=O)O` [SU 6668], the pIC50 in [9] is 7.22. As to `CC(C)(C)c1cc(C=C(C#N)C#N)cc(C(C)(C)C)c1O` [Tyrphostin 9], the pIC50 in assay [1] is 5.92.

Turning to `N#C/C(=C\c1ccc(O)c(O)c1)C(N)=O` [Tyrphostin 46], the pIC50 in assay [1] was 4.30. For the molecule `CC(C)NCC(O)c1ccc(O)c(O)c1` (centres unmarked) [isoproterenol], the “effect on beating frequency” value in [3] is given as “significantly increased”. Turning to `CCCC(=O)[O-].[Na+]` [sodium butyrate (NaB), sodium butyrate], the “induction efficiency of HADFs” value in assay [8] (pretreatment in combination with SMER28) is on record as “further increased the induction efficiency of HADFs”.
